Here are results for 9 compounds from patent US11345697B1, “Crystalline berberine ascorbate salt, methods of preparation and applications thereof” (Beiture LLC, priority 2020, dated 2022).

The conditions of series [1]: cited from earlier work.
How the values of series [2] were obtained: 50 mg of crystalline berberine ascorbate Form A (from example 1) was suspended in 0.20 ml of water.
50 mg of crystalline berberine chloride dihydrate (from Sigma-Aldrich) was suspended in 10 ml of water. […] The solubility residue was isolated by filtration.

For series [3] the following is noted: 25° C.; AAPS PharmSciTech, 2010, 11(3), 1466-1475; cited from earlier work.
A short description of series [4]: Thermogravimetry analysis (TGA). It is filed as physicochemical. As to conditions: for TGA mass loss: heating from about 25° C. to about 100° C. The method, then:
TGA was performed on samples prepared according to standard methods using a Q SERIES™ Q5000 thermogravimetry analyzer available from TA Instruments INSTRUMENTS® (New Castle, Del.). A sample (approximately 5 mg) was placed into an aluminum sample pan and transferred to the TGA furnace. The instrument was purged with nitrogen at 50 mL/min and data collected between 25° C. and 300° C., using a dynamic heating rate of 10° C./minute. Thermal data was analyzed using standard software, e.g., Universal Analysis v.4.5A from TA INSTRUMENTS®.

This is another data set of the same source.
Series [5] is described as follows: Hygroscopicity / form stability versus relative humidity. As to conditions: up to 70% relative humidity, without a form change. It is filed as physicochemical.

For the compound `COc1ccc2cc3[n+](cc2c1OC)CCc1cc2c(cc1-3)OCO2` [berberine chloride], the loss of water entry in series [1] (elevated temperature or low humidity environment) is reported as “more than 8%”. Also, the uptake of water entry in series [1] (in water or high humidity environment, converts to tetrahydrate form) is recorded as “about 8%”. In series [2], the “solid form of solubility residue (powder X-ray pattern)” value is on record as “converted berberine chloride tetrahydrate” and the solubility in water entry was “less than 5 g/L”. In addition, in series [3], the “aqueous solubility (literature value)” value was 1960 ± 110 µg/mL.

In turn, `COc1ccc2c(c1OC)C(C1CCCCC1=O)N1CCc3cc4c(cc3C1=C2)OCO4` (stereo not drawn) [berberine cyclohexanone adduct] yielded a TGA mass loss in series [4] of 0.3%.

In the case of `CCC(=O)CC1c2c(ccc(OC)c2OC)C=C2c3cc4c(cc3CCN21)OCO4` (stereo not drawn) [berberine methyl ethyl ketone adduct], the melting point was ~ 130 °C. The compound further showed a TGA mass loss in series [4] of 0.4%.

Compound `COc1ccc2c(c1OC)C(CC(=O)CC(C)C)N1CCc3cc4c(cc3C1=C2)OCO4` (stereo not drawn) [berberine methyl isobutyl ketone adduct] gave a TGA mass loss in series [4] of 0.3%.

In series [4], `COc1ccc2c(c1OC)C(CC(=O)C(C)C)N1CCc3cc4c(cc3C1=C2)OCO4` (stereo not drawn) [berberine methyl isopropyl ketone adduct] returned a TGA mass loss of 0.1%.

With `COc1ccc2c(c1OC)C(CC(=O)c1ccccc1)N1CCc3cc4c(cc3C1=C2)OCO4` (stereo not drawn) [berberine methyl phenyl ketone adduct], in series [4], the TGA mass loss is on record as 0.3%.

For `COc1ccc2c(c1OC)C(CC(C)=O)N1CCc3cc4c(cc3C1=C2)OCO4` (stereo not drawn) [crystalline berberine acetone adduct, berberine acetone adduct], in series [4], the TGA mass loss was determined as 0.3%.

Turning to `COc1ccc2cc3[n+](cc2c1OC)CCc1cc2c(cc1-3)OCO2` [crystalline berberine ascorbate Form A, berberine ascorbate], the hygroscopicity result in series [5] was “non-hygroscopic”. For the same compound, the “weight loss in thermal study” value in series [4] (heated to about 150° C.) is given as “no significant weight loss”. In addition, the TGA mass loss in series [4] turned out to be 0.4%. Also, in series [2], the “aqueous solubility, times higher than commercial berberine hydrochloride” value was “more than 50 times” and the solubility in water entry is on record as “more than 250 g/L”.

Regarding `COc1ccc2cc3[n+](cc2c1OC)CCc1cc2c(cc1-3)OCO2` [crystalline berberine ascorbate Form B, berberine ascorbate], in series [4], the TGA mass loss is 2.5%.
